Measured values taken from ChEMBL document CHEMBL5038651, “Design, Synthesis, and Biological Evaluation of 2-((4-Bisarylmethyl-piperazin-1-yl)methyl)benzonitrile Derivatives as HCV Entry Inhibitors” (J Med Chem, 2022).
The source made the active and inactive calls. The calls are words filed in the database; no cut-off is given here.

How the values were obtained:
[1] = (§1) Cytotoxicity against human Huh7.5 cells assessed as reduction in cell viability incubated for 96 hrs by MTT assay; assay type: toxicity, cell-based, Huh-7.5; details: Huh7.5 cells
Hepatitis C virus [2] = assay: Antiviral activity against HCV infected in human Huh7.5 cells incubated for 72 hrs by in-cell western assay; assay type: functional, organism-based, Hepacivirus hominis; details: Huh7.5, 72 h
[3] = Selectivity index, ratio of CC50 for cytotoxicity against human Huh7.5.1 cells to EC50 for antiviral activity against HCV infected in human Huh7.5.1 cells; assay type: toxicity, cell-based
Huh-7.5 = assay: as §1; assay type: toxicity, cell-based; details: huh-7.5, 96 h, 96 h
Hepatitis C virus [4] = assay: Antiviral activity against HCVcc infected in human Huh7.5 cells assessed as inhibition of viral replication; assay type: functional, organism-based, Hepacivirus hominis
Hepatitis C virus [5] = assay: Antiviral activity against HCV infected in human Huh7.5 cells carrying HCV subgenomic replicons assessed as inhibition of viral replication; assay type: functional, organism-based, Hepacivirus hominis
[6] = Cytotoxicity against human Huh7.5 cells infected with HCVcc assessed as reduction in cell viability incubated for 96 hrs by MTT assay; assay type: toxicity, cell-based, Huh-7.5
[7] = Cytotoxicity against human Huh7.5 cells carrying HCV subgenomic replicons assessed as reduction in cell viability incubated for 96 hrs by MTT assay; assay type: toxicity, cell-based, Huh-7.5
Hepacivirus hominis = assay: Binding affinity to HCV E1 protein at 12.5 to 200 uM by SPR analysis; details: dose 12.5-200 µM
[8] = molecular target: Histamine H1 receptor (Homo sapiens) (UniProt P35367); assay: Antagonist activity against H1 receptor (unknown origin) expressed in HEK cells at 1 uM relative to control; assay type: functional, cell-based
[9] = Selectivity index, ratio of CC50 for cytotoxicity against human Huh7.5 cells infected with HCVcc to EC50 for antiviral activity against HCVcc infected in human Huh7.5 cells; assay type: toxicity, cell-based; details: read-out: Ratio CC50/EC50
Hepatitis C virus [10] = assay: Antiviral activity against HCV infected in human Huh7.5 cells assessed as reduction in HCV core protein expression at 6.4 nM incubated for 72 hrs by in-cell western assay; assay type: functional, organism-based; details: Hepacivirus hominis
[11] = MRT in Sprague-Dawley rat at 15 mg/kg, po administered as single dose measured upto 24 hrs by LC-MS/MS analysis; assay type: ADME, organism-based; details: in vivo
[12] = AUC (0 to infinity) in Sprague-Dawley rat at 15 mg/kg, po administered as single dose measured upto 24 hrs by LC-MS/MS analysis; assay type: ADME, organism-based; parameters: route oral, dose 15 mg/kg, time <=24; details: in vivo
[13] = Half life in Sprague-Dawley rat at 15 mg/kg, po administered as single dose measured upto 24 hrs by LC-MS/MS analysis; assay type: ADME, organism-based; details: in vivo
[14] = Tmax in Sprague-Dawley rat at 15 mg/kg, po administered as single dose measured upto 24 hrs by LC-MS/MS analysis; assay type: ADME, organism-based; details: in vivo
[15] = Cmax in Sprague-Dawley rat at 15 mg/kg, po administered as single dose measured upto 24 hrs by LC-MS/MS analysis; assay type: ADME, organism-based; parameters: route oral, dose 15 mg/kg, time <=24; details: in vivo
[16] = Plasma concentration in Sprague-Dawley rat at 15 mg/kg, po administered as single dose measured up to 24 hrs by LC-MS/MS analysis; assay type: ADME, organism-based
Hepatitis C virus [17] = assay: Antiviral activity against HCV infected in human Huh7.5 cells assessed as reduction in viral RNA level preincubated for 2 hrs prior to viral infection and measured after 72 hrs by RT-qPCR analysis; assay type: functional, organism-based; details: Hepacivirus hominis, time 74.0 hrs
Hepatitis C virus [18] = assay: Antiviral activity against HCV infected in human Huh7.5 cells assessed as reduction in viral RNA level measured after 72 hrs by RT-qPCR analysis; assay type: functional, organism-based; details: Hepacivirus hominis
Hepatitis C virus [19] = assay: Antiviral activity against HCV infected in human Huh7.5 cells assessed as reduction in HCV core protein expression measured after 72 hrs by Western blotting analysis; assay type: functional, organism-based; details: Hepacivirus hominis
Hepatitis C virus [20] = assay: Antiviral activity against HCV infected in human Huh7.5 cells assessed as reduction in HCV core protein expression preincubated for 2 hrs followed by viral infection and measured after 72 hrs by Western blotting analysis; assay type: functional, organism-based; details: Hepacivirus hominis, time 74.0 hrs
Hepatitis C virus [21] = assay: Antiviral activity against HCV infected in human Huh7.5 cells assessed as reduction in HCV core protein expression pre-infected with virus for 2 hrs followed by compound addition and measured after 72 hrs by Western blotting analysis; assay type: functional, organism-based; details: Hepacivirus hominis
Hepatitis C virus [22] = assay: Antiviral activity against HCV infected in human Huh7.5 cells carrying HCV subgenomic replicons assessed as inhibition of viral replication at 1.4 uM; assay type: functional, organism-based; details: Hepacivirus hominis
Hepatitis C virus [23] = assay: Antiviral activity against HCV infected in human Huh7.5 cells assessed as reduction in viral RNA level pre-infected with virus for 2 hrs followed by compound addition and measured after 72 hrs by RT-qPCR analysis; assay type: functional, organism-based; details: Hepacivirus hominis

Chain of Histamine H1 receptor (Homo sapiens) (P35367 whole entry): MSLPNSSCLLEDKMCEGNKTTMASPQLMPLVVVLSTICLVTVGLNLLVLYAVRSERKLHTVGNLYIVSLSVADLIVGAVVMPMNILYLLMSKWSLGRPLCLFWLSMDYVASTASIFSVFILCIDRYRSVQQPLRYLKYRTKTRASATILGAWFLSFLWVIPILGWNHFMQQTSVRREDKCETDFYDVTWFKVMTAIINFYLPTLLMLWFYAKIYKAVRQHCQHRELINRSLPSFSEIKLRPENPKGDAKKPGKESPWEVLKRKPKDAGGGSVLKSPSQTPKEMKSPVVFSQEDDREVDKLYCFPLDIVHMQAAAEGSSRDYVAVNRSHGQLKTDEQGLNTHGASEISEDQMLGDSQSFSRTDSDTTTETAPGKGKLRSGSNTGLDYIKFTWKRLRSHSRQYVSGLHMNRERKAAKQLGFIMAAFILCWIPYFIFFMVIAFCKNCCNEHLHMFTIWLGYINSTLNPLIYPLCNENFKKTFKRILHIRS

N#Cc1ccc(NCCCn2ccnc2)cc1CN1CCN(C(c2ccccc2)c2ccccc2)CC1
CC50 at 96 h [1]: > 20 µM
EC50 (Hepatitis C virus [2]): 0.243 µM
selectivity ratio ([3]; read-out: Ratio CC50/EC50): > 82

CN(C)CCN(C)c1ccc(C#N)c(CN2CCN(C(c3ccc(Cl)cc3)c3ccc(Cl)cc3)CC2)c1
CC50 at 96 h [1]: 3.33 µM
EC50 (Hepatitis C virus [2]): 0.003 µM

CN1CCCN(c2ccc(C#N)c(CN3CCN(C(=O)c4ccc(F)cc4)CC3)c2)CC1
CC50 at 96 h [1]: 13.8 µM
EC50 (Hepatitis C virus [2]): > 4 µM

CN1CCCN(c2ccc(C#N)c(CN3CCN(Cc4ccccc4)CC3)c2)CC1
CC50 at 96 h [1]: > 100 µM
EC50 (Hepatitis C virus [2]): 21.1 µM

CN1CCCN(c2ccc(C(F)(F)F)c(CN3CCN(C(c4ccc(F)cc4)c4ccc(F)cc4)CC3)c2)CC1
CC50 at 96 h [1]: 1.45 µM
EC50 (Hepatitis C virus [2]): 0.007 µM
selectivity ratio ([3]; read-out: Ratio CC50/EC50): 206

CN(C)CCN(C)c1ccc(C#N)c(CN2CCN(c3ccc(Cl)cc3)CC2)c1
CC50 at 96 h [1]: 21.2 µM
CC50 (Huh-7.5): > 20 µM
EC50 (Hepatitis C virus [2]): 0.175 µM
selectivity ratio ([3]; read-out: Ratio): > 114
selectivity ratio ([3]; read-out: Ratio CC50/EC50): > 81
EC50 (Hepatitis C virus [4]): 0.26 µM
EC50 (Hepatitis C virus [5]): > 1.6 µM
CC50 at 96 h [6]: 18.8 µM
CC50 at 96 h [7]: 121 µM
Activity (Hepacivirus hominis): Active
Activity [8]: inactive
selectivity ratio [9]: 72
Activity (Hepatitis C virus [10]): inactive

CN(C)CCN(C)c1ccc(C#N)c(CN2CCN(C(=O)c3ccc(Cl)cc3)CC2)c1
CC50 at 96 h [1]: 10.1 µM
EC50 (Hepatitis C virus [2]): 12.2 µM

CN1CCN(C(c2ccccc2)c2ccc(Cl)cc2)CC1 (stereo unspecified) [CHLORCYCLIZINE]
EC50 (Hepatitis C virus [4]): 0.0676 µM
EC50 (Hepatitis C virus [5]): > 1.6 µM
CC50 at 96 h [6]: 30.8 µM
CC50 at 96 h [7]: 30.2 µM
inhibition ([8]; filed as antagonist): 99%
selectivity ratio [9]: 456
Activity (Hepatitis C virus [10]): inactive

COCCOc1ccc(C#N)c(CN2CCN(C(c3ccc(F)cc3)c3ccc(F)cc3)CC2)c1
CC50 at 96 h [1]: 6.45 µM
EC50 (Hepatitis C virus [2]): > 20 µM

CN1CCCN(c2ccc(C(F)(F)F)c(CN3CCN(c4ccc(Cl)cc4)CC3)c2)CC1
CC50 at 96 h [1]: 2.56 µM
EC50 (Hepatitis C virus [2]): 0.003 µM
selectivity ratio ([3]; read-out: Ratio CC50/EC50): 855

CN1CCCN(c2ccc(C#N)c(CN3CCN(C(c4ccc(F)cc4)c4ccc(F)cc4)CC3)c2)CC1
MRT [11]: 9.43 h
CC50 at 96 h [1]: 6.24 µM
EC50 (Hepatitis C virus [2]): 0.005 µM
selectivity ratio ([3]; read-out: Ratio CC50/EC50): 1130
AUC(0-inf) [12]: 639 ng·h/mL
EC50 (Hepatitis C virus [4]): 0.00289 µM
EC50 (Hepatitis C virus [5]): > 1.6 µM
CC50 at 96 h [6]: 3.31 µM
CC50 at 96 h [7]: 3.95 µM
half-life [13]: 5.66 h
Tmax [14]: 2.69 h
Cmax [15]: 78 ng/mL
concentration at 24 h [16]: 4.98 ng/mL
Activity (Hepacivirus hominis): Active
Activity [8]: inactive
Activity (Hepatitis C virus [17]): inactive
Activity (Hepatitis C virus [18]): inactive
Activity (Hepatitis C virus [19]): Active
Activity (Hepatitis C virus [20]): inactive
Activity (Hepatitis C virus [21]): Active
Activity (Hepatitis C virus [22]): inactive
selectivity ratio [9]: 1140
Activity (Hepatitis C virus [10]): Active
Activity (Hepatitis C virus [23]): Active

CN(C)CCN(C)c1ccc(C#N)c(CN2CCN(Cc3ccc(Cl)cc3)CC2)c1
CC50 at 96 h [1]: 18.1 µM
EC50 (Hepatitis C virus [2]): 1.04 µM
selectivity ratio ([3]; read-out: Ratio CC50/EC50): 17

CNCCN(C)CCN(C)c1ccc(C#N)c(CN2CCN(C(c3ccccc3)c3ccc(Cl)cc3)CC2)c1 (stereo unspecified)
CC50 at 96 h [1]: 4.71 µM
EC50 (Hepatitis C virus [2]): 0.095 µM
selectivity ratio ([3]; read-out: Ratio CC50/EC50): 49

CN(C)CCN(C)CCN(C)c1ccc(C#N)c(CN2CCN(C(c3ccccc3)c3ccc(Cl)cc3)CC2)c1 (stereo unspecified)
CC50 at 96 h [1]: 6.34 µM
EC50 (Hepatitis C virus [2]): 0.073 µM
selectivity ratio ([3]; read-out: Ratio CC50/EC50): 87

CN1CCCN(c2ccc(C#N)c(CN3CCN([C@@H](c4ccccc4)c4ccc(Cl)cc4)CC3)c2)CC1
CC50 at 96 h [1]: > 20 µM
EC50 (Hepatitis C virus [2]): 0.055 µM
selectivity ratio ([3]; read-out: Ratio CC50/EC50): > 364

N#Cc1ccc(NCCCn2ccnc2)cc1CN1CCN(C(c2ccccc2)c2ccc(Cl)cc2)CC1 (stereo unspecified)
CC50 at 96 h [1]: 5.38 µM
EC50 (Hepatitis C virus [2]): 0.22 µM
selectivity ratio ([3]; read-out: Ratio CC50/EC50): 24

CN1CCCN(c2ccc(C(F)(F)F)c(CN3CCN(C(c4ccccc4)c4ccc(Cl)cc4)CC3)c2)CC1 (stereo unspecified)
CC50 at 96 h [1]: 1.29 µM
EC50 (Hepatitis C virus [2]): 0.083 µM
selectivity ratio ([3]; read-out: Ratio CC50/EC50): 15
